The text below walks through data of ChEMBL document CHEMBL3232741, “Isoxazoline containing natural products as anticancer agents: a review” (Eur J Med Chem, 2014).

In brackets after ≈: the same amount, converted by molar mass.

The subject of one assay is P388. Kind of assay: Cytotoxicity against mouse P388 cells. Format: functional, cell-based.
The next assay has as its system HeLa. Put plainly: Cytotoxicity against human HeLa cells. Format: functional, cell-based.
A further assay relates to L1210. Put plainly: Cytotoxicity against mouse L1210 cells. Type of assay: functional, cell-based.
A further assay concerns KB. Put plainly: Cytotoxicity against human KB cells. Format: functional, cell-based.
Assay [1] has as its system U-937. Put plainly: Antiproliferative activity against human U937 cells by MTT assay. Type of assay: functional, cell-based.
The subject of the next assay is Jurkat. Put plainly: Antiproliferative activity against human Jurkat cells by MTT assay. Type of assay: functional, cell-based.
For assay [2], the system named is U-937. Put plainly: Induction of apoptosis in human U937 cells after 24 to 48 hrs by annexin V/propidium iodide staining based flow cytometry. Format: functional.
Assay [3] concerns the target T1, Adenosine receptor A1 (Homo sapiens) (UniProt P30542).
T1 sequence (whole entry): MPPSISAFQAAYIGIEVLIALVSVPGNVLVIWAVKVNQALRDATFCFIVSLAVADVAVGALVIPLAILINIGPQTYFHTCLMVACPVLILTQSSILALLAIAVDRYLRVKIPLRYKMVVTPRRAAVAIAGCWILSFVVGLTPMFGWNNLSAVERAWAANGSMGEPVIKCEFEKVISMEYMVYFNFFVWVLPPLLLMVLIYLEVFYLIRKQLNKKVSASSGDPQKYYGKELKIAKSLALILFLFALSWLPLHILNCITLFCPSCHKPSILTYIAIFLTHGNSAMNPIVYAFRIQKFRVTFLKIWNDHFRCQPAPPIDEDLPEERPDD
Put plainly: Displacement of [3H]DPCPX from adenosine A1 receptor in human HeLa cells at 100 uM by whole cell binding assay. Format: cell-based.

In general, IC50 refers to the concentration that inhibits the measured activity by half. A high value points to lower potency. Regarding `COC1=C(Br)C[C@]2(OC=C1Br)ON=C(C(=O)NCCCOc1c(Br)cc(CCNC=C3C(=O)C=CC3=O)cc1Br)[C@@H]2O` (relative stereo), in the assay on P388, the IC50 was 2.1 µg/mL (≈ 2.5 µM).
By EC50 is commonly meant the concentration needed to bring the measured effect to its halfway point. The compound `COC1=C(Br)[C@H](O)[C@@]2(C=C1Br)CC(C(=O)NCCCOc1c(Br)cc(CCNC(=O)C3=NO[C@]4(C=C(Br)C(OC)=C(Br)[C@@H]4O)C3)cc1Br)=NO2` came in with an EC50 in the assay on HeLa of 2.6 µM.
`COC1=C(Br)[C@H](O)[C@@]2(C=C1Br)CC(C(=O)NCCc1c(Br)cc(OCCCN(C)C)cc1Br)=NO2` [PUREALIDIN Q]: the IC50 in the assay with L1210 was 0.95 µg/mL (≈ 1.27 µM); in the assay on KB it was 1.2 µg/mL (≈ 1.61 µM).
As for `COC1=C(Br)[C@H](O)[C@@]2(C=C1Br)CC(C(=O)NCC(O)COc1c(Br)cc(C(O)CNC(=O)C3=NO[C@]4(C=C(Br)C(OC)=C(Br)[C@@H]4O)C3)cc1Br)=NO2` (stereo not given in full), the 50% inhibitory concentration (IC50) with U-937 [1] and in the assay with Jurkat was 7.39 µM throughout. This compound also returned an Activity with U-937 [2] of 35%.
Take `COC1=C(Br)[C@H](O)[C@@]2(C=C1Br)CC(C(=O)NCCCOc1c(Br)cc(C(O)CNC(=O)C3=NO[C@]4(C=C(Br)C(OC)=C(Br)[C@@H]4O)C3)cc1Br)=NO2` (stereo not given in full): the half-inhibitory concentration (IC50) in the assay with U-937 [1] and with Jurkat was 8.1 µM throughout. In the assay on U-937 [2], this compound came in with an Activity of 35%.
`COC1=C(Br)[C@H](O)[C@@]2(C=C1Br)CC(C(=O)NCCCOc1c(Br)cc(CCN(C)C)cc1Br)=NO2`: the figures for the half-inhibitory concentration (IC50) with L1210 and in the assay on KB were 2.8 µg/mL (≈ 3.76 µM) and 7.6 µg/mL (≈ 10.2 µM), respectively.
The compound `COC1=C(Br)[C@H](O)[C@@]2(C=C1Br)CC(C(=O)NCCCCNC(=O)C1=NO[C@]3(C=C(Br)C(OC)=C(Br)[C@@H]3O)C1)=NO2` [AEROTHIONIN] came in with a 50% effective concentration (EC50) in the assay with HeLa of 42 µM.
Usually inhibition stands for the relative decrease from the control value, in per cent. Read a low inhibition as little suppression. `COC1=C(Br)[C@H](O)[C@@]2(C=C1Br)CC(C(=O)NCCCOc1c(Br)cc(CCNS(=O)(=O)O)cc1Br)=NO2` had an inhibition in assay [3] of 61%. The compound also gave an EC50 in the assay with HeLa of 60 µM.
